# Reference: article PMC12498288 (Frontiers in Immunology, 2025)
# “And” between values parts separate entries of the source, which are not always exact repeats. Identical values can stand only once. Like-named read-outs stand apart in the source and are kept apart here.
# What was measured:
# [1] = LDH cytotoxicity assay, CC50 determination on Calu-3 cells; assay type: cell-based; conditions: human
# Description: In short, 2x10^4 Calu-3 cells were seeded per well in 96-well cell culture plates in IMDM medium containing 10% FBS, 100 units/mL penicillin, and 100 µg/mL streptomycin two days before treatment. Prior to the treatment, the medium was removed, and the cells were washed once with PBS. The cells were subsequently treated in quadruplicates with 600, 500, 400, 350, 300, 250, 200, 150, or 100 µM zapnometinib dissolved in DMSO and diluted in IMDM medium containing 5% FBS, 100 units/mL penicillin, and 100 µg/mL streptomycin. The DMSO concentration upon treatment was 1%. A DMSO control was supplied with 1% DMSO (without zapnometinib). An untreated control (spontaneous LDH release control) was supplied with cell culture medium (5% FBS). Viability assessment with LDH assay was performed after 24 and 48 h treatment. Therefore, 10 µL 10X Lysis Buffer were added to one well of each quadruplicate treatment set (maximum LDH release control) and the plates were incubated 45 min at 37 °C and 5% CO2. […] After 30 min incubation in the dark at RT, 50 µL stop solution were added to the wells and the absorbance was read at 490 nm and 680 nm. The absorbance measured at 680 nm was subtracted from the absorbance at 490 nm and the %Viability was calculated using the following formula: […]
# [2] = Pharmacokinetics after a single oral dose in Syrian hamsters (serum, HPLC-MS/MS); assay type: in vivo; conditions: for C(24 h): mean concentration at 24 h; for Cmax / AUC / Tmax / half-life: po
# Text: Zapnometinib was synthesized by Chemcon GmbH (Freiburg, Germany). Before administration to Syrian hamsters, it was freshly dissolved in dimethyl sulfoxide (DMSO) (Carl Roth GmbH, Karlsruhe, Germany) and then further dissolved in 15% Kolliphor EL (Sigma-Aldrich, Germany) and 80% phosphate-buffered saline (PBS) (Gibco, Life Technology Europe B.V., Bleiswijk, the Netherlands). Kolliphor EL is used to emulsify and solubilize oils and other water in-soluble substances, it has been used as a pharmaceutical solvent for numerous drugs and has proven in previous in vivo studies with zapnometinib. Zapnometinib was administered orally at the indicated doses in a volume of 500 μL/150 g body weight using a gavage needle.
# Drug administration and blood sampling in Syrian hamsters were performed by Viroclinics Xplore (Schaijk, the Netherlands) and are described in the sections “Drug administration” and “Sampling after inoculation”. Specifically, at different time points (0, 0.5, 1, 2, 4, 8, 12, and 24 h) after the administration of a single dose of zapnometinib (15, 30, or 60 mg/kg per oral (p.o.)), ~200 µL blood was collected retro-orbitally from three animals per time point per dose and alternating animals between time points (except at 24 h, n = 6 per group) under isoflurane anesthesia using a heparinized capillary tube containing a clot activator (Microvette 500 Z-Gel, Sarstedt). Serum was collected by centrifuging the tubes at 4000 x g for 10 min, aliquoted, and stored at < -70°C until pharmacokinetic analysis. Daily clinical observations included monitoring of signs such as ruffled fur, hunched back posture, accelerated breathing and lethargy, and the body weight was monitored before and 24 h post administration.
# Bioanalysis and pharmacokinetic evaluation were performed at Prolytic GmbH (Frankfurt, Germany). […] liquid chromatography tandem mass spectrometry (HPLC-MS/MS) was employed to determine the concentration of zapnometinib in hamster serum in accordance with the company’s SOPs. During the analytical phase, two batches were evaluated. The acceptance criteria for the calibration standards and quality control (QC) samples were fulfilled for both batches as per the company’s SOPs. […] In total, 81 study test samples were analyzed. The validity of the method during the analysis of the test samples was ensured by assaying QC samples with known concentrations of zapnometinib; zapnometinib 13C6 was used as the internal standard. The lower limit of quantification (LLOQ) of the method was determined to be 10 ng/mL for zapnometinib in undiluted serum. All serum concentrations falling below LLOQ were assigned a value of 0. ANALYST software was used to calculate the concentrations of the test and QC samples based on the corresponding calibration curves. The obtained mean serum concentrations were used for noncompartmental pharmacokinetic evaluation with Phoenix® WinNonLin software (Pharsight Corporation, Mountain View, CA, USA; version 8.1).
# [3] = set-up: method as in PMID 38106555; conditions: hospitalized COVID-19 patients; cited from earlier work
# [4] = Syrian, hamster, serum, 15 mg/kg p.o. single dose
# [5] = Syrian, hamster, serum, 30 mg/kg p.o. single dose
# [6] = hamster, serum, 60 mg/kg p.o. single dose
# [7] = single doses of 15, 30 or 60 mg/kg p.o.
compound,measurement,setting,value
O=C(O)c1ccc(F)c(F)c1Nc1ccc(I)cc1Cl [zapnometinib],CC50 at 24 h,[1]; 24 h treatment,532 µM and 218 µg/mL
same,CC50 at 48 h,[1]; 48 h treatment,471 µM and 193 µg/mL
same,C(24 h),[2]; 15 mg/kg p.o. single dose,0.26 µM
same,C(24 h),[2]; 30 mg/kg p.o. single dose,0.55 µM
same,Cmax,"[2]; Syrian, hamster, 15 mg/kg p.o. single dose, serum",85100 ng/mL and 34.8 µM
same,Cmax,"[2]; Syrian, hamster, 30 mg/kg p.o. single dose, serum",53.9 µM
same,concentration at 24 h,"[2]; Syrian, hamster, serum, oral, 60 mg/kg p.o. single dose, read-out: concentration of zapnometinib after 24 h",5320 ng/mL and 13 µM
same,AUC,[2]; [4],672 µg·h/mL
same,Tmax,[2]; [4],2 h
same,half-life,"[2]; Syrian, hamster, serum, 15 mg/kg p.o. single dose, read-out: T1/2 (converted)",2.74 h
same,AUC,[2]; [5],1230 µg·h/mL
same,Tmax,[2]; [5],2 h
same,half-life,"[2]; Syrian, hamster, serum, 30 mg/kg p.o. single dose, read-out: T1/2 (converted)",2.75 h
same,half-life,"[2]; Syrian, hamster, serum, all dose groups (15, 30, 60 mg/kg p.o.), read-out: apparent terminal half-life",2 to 3 h
same,Cmax,"[2]; hamster, 30 mg/kg p.o. single dose, serum",132 µg/mL
same,Cmax,"[2]; hamster, 60 mg/kg p.o. single dose, serum",242000 ng/mL and 99.2 µM
same,AUC,[2]; [6],2970 µg·h/mL
same,Tmax,[2]; [6],4 h
same,half-life,"[2]; hamster, serum, 60 mg/kg p.o. single dose, read-out: T1/2 (converted)",3.07 h
same,adverse events,[2]; [7],no adverse events were reported
same,tolerability,[2]; [7],well tolerated
same,safety and tolerability,[3],safe and well-tolerated
